In PubChem BioAssay (NCI):
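All cell lines were grown in 96-well plates and treated with compound for 48 hours. GI50 is the concentration that inhibits growth by half. TGI: concentration producing complete growth inhibition.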

How the values were obtained:
Experiment in all cases: DTP human tumour cell line panel, 48 h
CCRF-CEM leukemia = tested on: CCRF-CEM leukemia
HCT-116 colon = tested on: HCT-116 colon
HCT-15 colon = tested on: HCT-15 colon
HT29 colon = tested on: HT29 colon
NCI-H460 lung = tested on: NCI-H460 lung
OVCAR-8 ovarian = tested on: OVCAR-8 ovarian
SK-OV-3 ovarian = tested on: SK-OV-3 ovarian
TK-10 renal = tested on: TK-10 renal
HOP-62 NSCLC = tested on: HOP-62 NSCLC
SR leukemia = tested on: SR leukemia

Row | SMILES | TGI (CCRF-CEM leukemia) | TGI (HCT-116 colon) | TGI (HCT-15 colon) | TGI (HT29 colon) | TGI (NCI-H460 lung) | TGI (OVCAR-8 ovarian) | TGI (SK-OV-3 ovarian) | TGI (TK-10 renal) | TGI (HOP-62 NSCLC) | GI50 (CCRF-CEM leukemia) | GI50 (HCT-116 colon) | GI50 (HCT-15 colon) | GI50 (HOP-62 NSCLC) | GI50 (HT29 colon) | GI50 (NCI-H460 lung) | GI50 (OVCAR-8 ovarian) | GI50 (SK-OV-3 ovarian) | GI50 (TK-10 renal) | TGI (SR leukemia) | GI50 (SR leukemia)
1 | FC1OC2OC1C(OCc1ccccc1)C(OCc1ccccc1)C2OCc1ccccc1 (stereo not drawn) | 75.8 µM | 63.2 µM | > 100 µM | > 100 µM | > 100 µM | > 100 µM | > 100 µM | > 100 µM |  |  |  |  |  |  |  |  |  |  |  | 
2 | CC(=O)C1C(=O)N(C(C)C)C[C@@H]2CCC(=O)C[C@H]12 (stereo partly drawn) | > 100 µM | > 100 µM | > 100 µM | > 100 µM | > 100 µM | > 100 µM | > 100 µM | > 100 µM | > 100 µM |  |  |  |  |  |  |  |  |  |  | 
3 | Cc1ccc(C(C)C)cc1NC(=O)Nc1ccc([N+](=O)[O-])cc1 | 5.53 µM | 7.13 µM | 8.94 µM | 10.2 µM | 5.34 µM | 11.6 µM | 5.97 µM | 9.44 µM | 5.92 µM | 1.97 µM | 2.45 µM | 2.44 µM | 2.53 µM | 3.2 µM | 2.21 µM | 3.19 µM | 2.17 µM | 2.36 µM |  | 
4 | N[C@@H]1CCCC[C@@H]1N.O=P([O-])([O-])CN(CP(=O)([O-])[O-])CP(=O)([O-])[O-].[Pt+2] | > 100 µM | > 100 µM | > 100 µM | > 100 µM | > 100 µM | > 100 µM | > 100 µM | > 100 µM | > 100 µM | > 100 µM | > 100 µM | > 100 µM | > 100 µM | > 100 µM | > 100 µM | > 100 µM | > 100 µM | > 100 µM |  | 
5 | COc1ccc(S(=O)(=O)N(C)CC(=O)O)cc1 | > 100 µM |  | > 100 µM | > 100 µM | > 100 µM | > 100 µM | > 100 µM | > 100 µM |  |  |  |  |  |  |  |  |  |  |  | 
6 | O=C(Cc1csc2nc(-c3ccc(Br)cc3)cn12)N/N=C/c1ccc(O)cc1 | 79.9 µM | 24.2 µM | 61.5 µM | > 100 µM | > 100 µM | 25.9 µM | > 100 µM | 33.4 µM | 53.2 µM | 12.2 µM | 10.5 µM | 17.9 µM | 18.1 µM | 49.9 µM | 56.9 µM | 7.07 µM | 52.5 µM | 9.79 µM |  | 
7 | C=[CH][Sn]([CH]=C)([O]c1cccc2cccnc12)[O]c1cccc2cccnc12 |  | 2.46 µM | 6.4 µM | 7.14 µM | 9.01 µM | 18.2 µM | 44.8 µM | 29.4 µM | 32.8 µM |  | 1.12 µM | 2.36 µM | 10.7 µM | 3.26 µM | 3.11 µM | 3.76 µM | 14.5 µM | 9.46 µM |  | 
8 | C/C=C1\C(=O)OC2CCN3CCC(COC(=O)C(C)(O)C(C)C1O)C23 (stereo not drawn) |  | > 100 µM | > 100 µM | > 100 µM | > 100 µM | > 100 µM | > 100 µM | > 100 µM |  |  |  |  |  |  |  |  |  |  |  | 
9 | C[C@]12CC[C@H](OC3CCCCO3)CC1=CC[C@@H]1C2CC[C@]2(C)/C(=N/O)CCC12 (stereo partly drawn) |  | 29.6 µM | 44.5 µM | 26.8 µM | 62.1 µM | 40.5 µM | 82 µM | 70.1 µM | > 100 µM |  |  |  |  |  |  |  |  |  |  | 
10 | COc1cccc(NC(=O)C(=O)C(C(C)=O)c2nc3ccc(Cl)cc3[nH]c2=O)c1 (stereo not drawn) | > 100 µM | > 100 µM | > 100 µM | > 100 µM | > 100 µM | > 100 µM | > 100 µM | > 100 µM | > 100 µM |  |  |  |  |  |  |  |  |  |  | 
11 | S=c1nc(-c2ccnc(-c3nc(=S)[nH][nH]3)c2)[nH][nH]1 | > 100 µM | > 100 µM | > 100 µM | > 100 µM | > 100 µM | > 100 µM | > 100 µM | > 100 µM | > 100 µM |  |  |  |  |  |  |  |  |  |  | 
12 | O=C(Cc1ccccc1)NN1C(=O)/C(=C\c2ccc(O)cc2)SC1=Nc1ccccc1 | > 100 µM | > 100 µM | > 100 µM | > 100 µM | > 100 µM | > 100 µM | > 100 µM | > 100 µM | > 100 µM |  |  |  |  |  |  |  |  |  |  | 
13 | CCOC(=O)[C@H]1Nc2ccccc2C2c3ccccc3CC21 (stereo partly drawn) |  | > 100 µM | > 100 µM | 37.2 µM | > 100 µM | > 100 µM |  | > 100 µM | > 100 µM |  |  |  |  |  |  |  |  |  | > 100 µM | 
14 | COC(=O)/C(=N\NC(N)=S)C(C#N)c1ccccc1 (stereo not drawn) | > 100 µM | > 100 µM | > 100 µM | > 100 µM | > 100 µM | > 100 µM | > 100 µM | > 100 µM | > 100 µM |  |  |  |  |  |  |  |  |  |  | 
15 | COc1ccc(CCN=C2CCC(C(=O)NCCc3ccc(OC)c(OC)c3)N2)cc1OC (stereo not drawn) | > 100 µM | > 100 µM | > 100 µM | > 100 µM | > 100 µM | > 100 µM | > 100 µM | > 100 µM | > 100 µM |  |  |  |  |  |  |  |  |  |  | 
16 | Cc1cc(Cl)cc2c1NC(=O)C2=O (tested in a mixture with another compound) | 44.9 µM | > 100 µM | > 100 µM | > 100 µM | > 100 µM | > 100 µM | > 100 µM | > 100 µM | > 100 µM |  |  |  |  |  |  |  |  |  |  | 
17 | Cc1nc(-n2nc(-c3ccccc3)cc2-c2ccccc2)sc1C(/C=C/c1ccc([N+](=O)[O-])cc1)=N/NC(=O)c1ccncc1 | > 100 µM | 21.8 µM | 96.2 µM | > 100 µM | > 100 µM | > 100 µM | > 100 µM | 82.9 µM | 35 µM |  |  |  |  |  |  |  |  |  |  | 
18 | CN1CCc2c1nc(-c1ccc([N+](=O)[O-])cc1)c1c2N(C)CC1 | > 100 µM | > 100 µM | > 100 µM | > 100 µM | > 100 µM | > 100 µM | > 100 µM | > 100 µM | > 100 µM |  |  |  |  |  |  |  |  |  |  | 
19 | CC1OC(OC2CCC3(C=O)C4CCC5(C)C(C6=CC(=O)OC6)CCC5(O)C4CCC3(O)C2)C(O)C(O)C1O (stereo not drawn) |  |  | 9.68e-05 µM |  | 3.81e-05 µM | 6.21e-05 µM | 0.000102 µM | 0.000193 µM | 3.85e-05 µM |  |  |  |  |  |  |  |  |  |  | 
20 | COC(OC)c1cc2c(cc1C(=O)[C@@]13CCC[C@@H]1NC(=O)O3)OCO2 | > 100 µM | > 100 µM |  | > 100 µM | > 100 µM | > 100 µM | > 100 µM | > 100 µM | > 100 µM |  |  |  |  |  |  |  |  |  |  | 
21 | CCOc1cc(-c2ccc[nH]2)[nH]c1/C=C1\N=C(C)C(C(=O)OC)=C1C | 1.99 µM | 1.08 µM | 0.0705 µM | 1.06 µM | 1.32 µM | 1.4 µM | 1.57 µM | 1.5 µM | 0.294 µM |  | 0.0188 µM | 0.0148 µM | 0.0361 µM | < 0.0123 µM | 0.0256 µM | 0.0329 µM | 0.183 µM | 0.0579 µM |  | 
22 | N=C1C=C(N)C(=O)c2[nH]c(=O)ccc21 | 5.81 µM | 2.48 µM | 4.06 µM | 4.5 µM | 6.95 µM |  | 26.7 µM | 24.9 µM | 3.59 µM |  |  |  |  |  |  |  |  |  |  | 
23 | OCNCCNc1nc2ccccc2c2[nH]c3ccccc3c12 |  | 1.14 µM | 6.71 µM | > 50 µM | 5.8 µM | 8.41 µM |  | 9.89 µM | 1.92 µM |  | 0.186 µM | 1.42 µM | 0.371 µM | 0.556 µM | 1.46 µM | 0.809 µM |  | 1.76 µM | > 50 µM | 0.902 µM
24 | CCCCCCCCCCCCCCCCOC(=O)c1cc(O)cc(C(=O)OCCCCCCCCCCCCCCCC)c1 | > 100 µM | > 100 µM | > 100 µM | > 100 µM | > 100 µM | > 100 µM | > 100 µM | > 100 µM |  |  |  |  |  |  |  |  |  |  |  | 
25 | CCCCCCCCCCCCCc1nn[nH]n1 | 41.7 µM | 31.7 µM | 34.6 µM | 33 µM | 40.6 µM | 81.1 µM | 47.3 µM | 43.7 µM | 32.8 µM |  |  |  |  |  |  |  |  |  |  | 
26 | COc1ccccc1NC(=O)C(CC(C(=O)Nc1ccccc1OC)/C(C)=N/Nc1ccc([N+](=O)[O-])cc1[N+](=O)[O-])/C(C)=N/Nc1ccc([N+](=O)[O-])cc1[N+](=O)[O-] (stereo not drawn) | > 100 µM | > 100 µM | > 100 µM | > 100 µM | > 100 µM | > 100 µM | > 100 µM | 60 µM | > 100 µM |  |  |  |  |  |  |  |  |  |  | 
27 | Cc1cc([N+](=O)[O-])c(C)c(Br)c1C |  | > 100 µM | > 100 µM | > 100 µM | > 100 µM | > 100 µM | > 100 µM | > 100 µM | > 100 µM |  |  |  |  |  |  |  |  |  |  | 
28 | CSC1=NCC2(S1)c1ccccc1N(C(=O)OC(C)(C)C)C2N1CCCCC1 (stereo not drawn) | > 100 µM | > 100 µM |  | > 100 µM | > 100 µM | > 100 µM |  | > 100 µM | > 100 µM | > 100 µM | 40.6 µM |  | 23.4 µM | > 100 µM | 69.6 µM | > 100 µM |  | > 100 µM |  | 
29 | O=C(Nc1cccc(NC(=O)c2cc(=O)c3ccccc3o2)n1)c1cc(=O)c2ccccc2o1 | > 100 µM | > 100 µM | > 100 µM |  | > 100 µM | > 100 µM | > 100 µM | > 100 µM | > 100 µM |  |  |  |  |  |  |  |  |  |  | 
30 | CCOc1ccc(C(CN2CCOCC2)C(C)=O)cc1OC (stereo not drawn) | 26.1 µM | 43.5 µM | 22.5 µM | 34.8 µM | 32.5 µM | 37.7 µM |  | 31 µM | 40.4 µM |  |  |  |  |  |  |  |  |  |  | 
